Reference: ChEMBL document CHEMBL1201862, “PubChem BioAssay data set” (2004)
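1) Cells in 96-well plates. 2) Compound, 48 h, 5 concentrations. 3) Linear interpolation between surrounding doses. 4) Unreached endpoint = highest concentration. Here, GI50 denotes the concentration required for 50% inhibition of growth.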 Activity calls are given as the source filed them. Cut-off read from the data, not from the text of the source: active = GI50 up to about 1.1 µM and inactive = higher.

Tests used:
Assay in all cases: DTP human tumour cell line panel, 48 h
SF-295 = test system: SF-295
NCI-H460 = test system: NCI-H460
HL-60 = test system: HL-60
OVCAR-3 = test system: OVCAR-3
SW-620 = test system: SW-620
786-0 = test system: 786-0
OVCAR-4 = test system: OVCAR-4
COLO 205 = test system: COLO 205
MOLT-4 = test system: MOLT-4
HCT-116 = test system: HCT-116
MDA-N = test system: MDA-N
SK-MEL-5 = test system: SK-MEL-5
RXF 393 = test system: RXF 393
SN12C = test system: SN12C
TK-10 = test system: TK-10
HCC 2998 = test system: HCC 2998
UO-31 = test system: UO-31
NCI-H23 = test system: NCI-H23
BT-549 = test system: BT-549

SMILES	GI50 (SF-295)	GI50 (NCI-H460)	GI50 (HL-60)	GI50 (OVCAR-3)	GI50 (SW-620)	GI50 (786-0)	GI50 (OVCAR-4)	GI50 (COLO 205)	GI50 (MOLT-4)	GI50 (HCT-116)	GI50 (MDA-N)	GI50 (SK-MEL-5)	GI50 (RXF 393)	GI50 (SN12C)	GI50 (TK-10)	GI50 (HCC 2998)	GI50 (UO-31)	GI50 (NCI-H23)	GI50 (BT-549)
CCCCOC(=O)NC(Nc1ccc(S(=O)(=O)Nc2ncccn2)cc1)(C(F)(F)F)C(F)(F)F	> 100 µM (inactive)	> 100 µM (inactive)	89.7 µM (inactive)	> 100 µM (inactive)	> 100 µM (inactive)	> 100 µM (inactive)	> 100 µM (inactive)	> 100 µM (inactive)	> 100 µM (inactive)	> 100 µM (inactive)	> 100 µM (inactive)	> 100 µM (inactive)	> 100 µM (inactive)	> 100 µM (inactive)	> 100 µM (inactive)	33.5 µM (inactive)	21.7 µM (inactive)	> 100 µM (inactive)	
CN(C)CCNC(=O)Cn1cnc2cccc([N+](=O)[O-])c2c1=O	> 100 µM (inactive)	> 100 µM (inactive)	> 100 µM (inactive)	> 100 µM (inactive)	> 100 µM (inactive)	> 100 µM (inactive)	> 100 µM (inactive)	> 100 µM (inactive)	> 100 µM (inactive)	> 100 µM (inactive)	> 100 µM (inactive)	> 100 µM (inactive)	> 100 µM (inactive)	> 100 µM (inactive)	> 100 µM (inactive)	> 100 µM (inactive)	> 100 µM (inactive)	> 100 µM (inactive)	
Cc1ccc(S(=O)(=O)N2CCN(S(=O)(=O)c3ccc(C)cc3)Cc3ccccc3C2)cc1	31 µM (inactive)	> 100 µM (inactive)	> 100 µM (inactive)	56.8 µM (inactive)	> 100 µM (inactive)	35.2 µM (inactive)	18.8 µM (inactive)	> 100 µM (inactive)	> 100 µM (inactive)	> 100 µM (inactive)		29.3 µM (inactive)		53.2 µM (inactive)	> 100 µM (inactive)	> 100 µM (inactive)	> 100 µM (inactive)	57.5 µM (inactive)	64.9 µM (inactive)
CCCC/N=C(/c1ccccc1)N1CCOCC1	> 100 µM (inactive)	> 100 µM (inactive)	> 100 µM (inactive)	> 100 µM (inactive)	> 100 µM (inactive)	> 100 µM (inactive)		> 100 µM (inactive)	> 100 µM (inactive)	> 100 µM (inactive)	> 100 µM (inactive)	> 100 µM (inactive)	> 100 µM (inactive)	> 100 µM (inactive)	> 100 µM (inactive)		97.7 µM (inactive)	> 100 µM (inactive)	> 100 µM (inactive)
O=C(/C=C/c1ccc2c(c1)OCO2)c1ccccc(=O)c1O		3.28 µM (inactive)		10.7 µM (inactive)	12 µM (inactive)	8.32 µM (inactive)	26.5 µM (inactive)	4.94 µM (inactive)	6.27 µM (inactive)	6.05 µM (inactive)	16.4 µM (inactive)	7.66 µM (inactive)		21.7 µM (inactive)	18.8 µM (inactive)		13.6 µM (inactive)		15.7 µM (inactive)
Nc1nc(Nc2ccc(Cl)cc2)sc1C(=O)c1cccs1		17.9 µM (inactive)	> 100 µM (inactive)	5.57 µM (inactive)	59 µM (inactive)	11.8 µM (inactive)	25.9 µM (inactive)	> 100 µM (inactive)	> 100 µM (inactive)	14.7 µM (inactive)	> 100 µM (inactive)	38.2 µM (inactive)	17.2 µM (inactive)	21 µM (inactive)	13.1 µM (inactive)		17 µM (inactive)	29.2 µM (inactive)	40.5 µM (inactive)
CC1CCC/C1=C(/I)C(=O)c1ccccc1 (configuration not stated)	27 µM (inactive)	> 100 µM (inactive)	39.5 µM (inactive)		53.1 µM (inactive)	> 100 µM (inactive)	85.7 µM (inactive)	> 100 µM (inactive)	19.2 µM (inactive)	36.6 µM (inactive)	36.6 µM (inactive)	26.2 µM (inactive)	> 100 µM (inactive)	> 100 µM (inactive)	> 100 µM (inactive)	> 100 µM (inactive)	> 100 µM (inactive)	74.5 µM (inactive)	
CC1(C)CC(=O)c2c(nc3c(ccc4ccccc43)c2-c2ccc(NC(=O)CCCCC(=O)Nc3ccc(-c4c5c(nc6c4ccc4ccccc46)CC(C)(C)CC5=O)cc3)cc2)C1	19.6 µM (inactive)	27.7 µM (inactive)	29.6 µM (inactive)	25.6 µM (inactive)	38.6 µM (inactive)	42.2 µM (inactive)		26.7 µM (inactive)	13.7 µM (inactive)	23.9 µM (inactive)	26.4 µM (inactive)	32.1 µM (inactive)	78.3 µM (inactive)	33.1 µM (inactive)	48.6 µM (inactive)		19.5 µM (inactive)		
COCO[C@@H]1C[C@H]2C(=O)N(COC)c3ccccc3C(=O)N2C1	> 100 µM (inactive)		> 100 µM (inactive)		> 100 µM (inactive)	> 100 µM (inactive)	> 100 µM (inactive)	> 100 µM (inactive)	> 100 µM (inactive)	> 100 µM (inactive)	> 100 µM (inactive)	> 100 µM (inactive)	> 100 µM (inactive)	> 100 µM (inactive)	> 100 µM (inactive)		> 100 µM (inactive)	> 100 µM (inactive)	> 100 µM (inactive)
COc1cc2c(cc1OC)C1CCc3ccccc3CN1CC2 (configuration not stated)	> 100 µM (inactive)	> 100 µM (inactive)	> 100 µM (inactive)	> 100 µM (inactive)	> 100 µM (inactive)	> 100 µM (inactive)	> 100 µM (inactive)	> 100 µM (inactive)	> 100 µM (inactive)	> 100 µM (inactive)	> 100 µM (inactive)	> 100 µM (inactive)	> 100 µM (inactive)	> 100 µM (inactive)	> 100 µM (inactive)	> 100 µM (inactive)		> 100 µM (inactive)	
Cc1ccc([N+](=O)[O-])cc1S(=O)(=O)Nc1ccc(C2=NN(C(=O)c3ccccc3)C(c3ccccc3O)C2)cc1 (configuration not stated)	23.4 µM (inactive)		18.6 µM (inactive)	17 µM (inactive)	30.9 µM (inactive)	14.4 µM (inactive)	15.4 µM (inactive)	14.3 µM (inactive)	13.6 µM (inactive)	11.4 µM (inactive)	21.5 µM (inactive)	15.8 µM (inactive)	12.3 µM (inactive)	13.5 µM (inactive)	13.7 µM (inactive)		16.6 µM (inactive)	17.1 µM (inactive)	14 µM (inactive)
CCOC(=O)CN1C(=O)NC(C)(c2ccccc2)C1=O (configuration not stated)	> 100 µM (inactive)			> 100 µM (inactive)	> 100 µM (inactive)	> 100 µM (inactive)	> 100 µM (inactive)	> 100 µM (inactive)	> 100 µM (inactive)	> 100 µM (inactive)		> 100 µM (inactive)	> 100 µM (inactive)	> 100 µM (inactive)	> 100 µM (inactive)	> 100 µM (inactive)	> 100 µM (inactive)	> 100 µM (inactive)	> 100 µM (inactive)
O=C1CCCc2c1c1c(n2Cc2ccccc2)-c2ccccc2C1=O	15.7 µM (inactive)	25.8 µM (inactive)	23.9 µM (inactive)	16 µM (inactive)	32.3 µM (inactive)	21.6 µM (inactive)	14 µM (inactive)	17.9 µM (inactive)		14.4 µM (inactive)		18.7 µM (inactive)	29.9 µM (inactive)	19.3 µM (inactive)	10.5 µM (inactive)	15.2 µM (inactive)	23.7 µM (inactive)	14.9 µM (inactive)	22.8 µM (inactive)
Cn1c(=O)c2c(nc(N3CCOCC3)n2CCCNCC(O)c2ccc(O)c(O)c2)n(C)c1=O (configuration not stated)	> 100 µM (inactive)	> 100 µM (inactive)		> 100 µM (inactive)	> 100 µM (inactive)	> 100 µM (inactive)	> 100 µM (inactive)	> 100 µM (inactive)	20.8 µM (inactive)	> 100 µM (inactive)		> 100 µM (inactive)	> 100 µM (inactive)	81.8 µM (inactive)	> 100 µM (inactive)		> 100 µM (inactive)	> 100 µM (inactive)	> 100 µM (inactive)
CN1C(=O)C(O)CC1c1cccc(C(F)(F)F)c1 (configuration not stated)	> 100 µM (inactive)	> 100 µM (inactive)	> 100 µM (inactive)	> 100 µM (inactive)	> 100 µM (inactive)	> 100 µM (inactive)	> 100 µM (inactive)	> 100 µM (inactive)	> 100 µM (inactive)	> 100 µM (inactive)		> 100 µM (inactive)	> 100 µM (inactive)	> 100 µM (inactive)	> 100 µM (inactive)	> 100 µM (inactive)	> 100 µM (inactive)	> 100 µM (inactive)	> 100 µM (inactive)
COc1cc2cc(C(=O)N3CC(CCl)c4c3cc(O)c3ccccc43)[nH]c2c(OC)c1OC (configuration not stated)	< 0.005 µM (active)	< 0.005 µM (active)	< 0.005 µM (active)	< 0.005 µM (active)	< 0.005 µM (active)	< 0.005 µM (active)	< 0.005 µM (active)	< 0.005 µM (active)	< 0.005 µM (active)	< 0.005 µM (active)		< 0.005 µM (active)	< 0.005 µM (active)		< 0.005 µM (active)	< 0.005 µM (active)	< 0.005 µM (active)	< 0.005 µM (active)	< 0.005 µM (active)
